Measurements as given in patent US4111955A, “N-Trihalomethanesulfenyl carbamoyloximino di-sulfur heterocyclic compounds” (priority 1976, dated 1978).
Values after ≈ are worked out from the molar mass of the structure shown.

Tests used:
[1] = Peroral toxicity to mammals (rat); format: in vivo; details: in vivo, po; rat, peroral, Table II; read-out: Rat P.O. LD50
Experimental: Certain of these compositions were also evaluated to determine their peroral toxicity to mammals. The animal selected for this experiment was the rat. The test results obtained are expressed in terms of the number of milligrams of composition per kilogram of weight of the animal required to achieve a mortality rate of 50 percent (LD50).

[2] = system: two-spotted mite (Tetranychus urticae Koch); assay: Mite Foliage Spray Test; format: in vivo; set-up: key to pesticidal activity rating, Mite: A: excellent control; B: partial control; C: no control
Experimental: (§1) Adults and nymphal stages of the two-spotted mite (Tetranychus urticae Koch), reared on Tendergreen bean plants at 80±5 percent relative humidity, were the test organisms. Infested leaves from a stock culture were placed on the primary leaves of two bean plants 6 to 8 inches in height, growing in a 21/2 inch clay pot. 150-200 Mites, a sufficient number for testing, transferred from the excised leaves to the fresh plants in a period of 24 hours. Following the 24 hour transfer period, the excised leaves were removed from the infested plants. The test compounds were formulated by diluting the stock suspension with water to give a suspension containing 500 parts of test compound per million parts of final formulation. The potted plants (one pot per compound) were placed on a revolving turntable and sprayed with 100-110 milliliters of test compound formulation by use of a DeVilbiss spray gun set at 40 psig. air pressure. This application, which lasted 25 seconds, was sufficient to wet the plants to run-off. As a control, 100-110 milliliters of a water solution containing acetone and emulsifier in the same concentrations as the test compound formulation, but containing no test compound, were also sprayed on infested plants. The sprayed plants were held at 80±5 percent relative humidity for 6 days, after which a mortality count of motile forms was made. Microscopic examination for motile forms was made on the leaves of the test plants. Any individual which was capable of locomotion upon prodding was considered living.
(§2) In these tests the pesticidal activity of the compounds against aphid, mite, Southern Armyworm, Bean Beetle and House fly was rated as follows:
(§3) The LD50 values shown in the above Table II were determined by testing the compositions over an appropriate concentration range obtained by serial dilution of the stock suspension with water. The percent kill was plotted on log-probit graph paper versus parts per million concentration, and the LD50 read from an eye-fitted line drawn through the resultant points.

[3] = system: bean aphid (Aphis fabae Scop.); assay: Bean Aphid Foliage Spray Test; format: in vivo; set-up: key to pesticidal activity rating, Aphid: A: excellent control; B: partial control; C: no control
Experimental: Adults and nymphal stages of the bean aphid (Aphis fabae Scop.) reared on potted dwarf nasturtium plants at 65°-70° F. and 50-70 percent relative humidity, constituted the test insects. For testing purposes, the number of aphids per pot was standardized to 100-150 by trimming plants containing excess aphids.
The test compounds were formulated by diluting the stock suspension with water to give a suspension containing 500 parts of test compound per million parts of final formulation.
The potted plants (one pot per compound tested) infested with 100-150 aphids, were placed on a revolving turntable and sprayed with 100-110 milliliters of test compound formulation by use of a DeVilbiss spray gun set at 40 psig. air pressure. This application, which lasted 25 seconds, was sufficient to wet the plants to run-off. As a control, 100-110 milliliters of a water-acetone-emulsifier solution containing no test compound were also sprayed on infested plants. After spraying, the pots were placed on their sides on a sheet of white standard mimeograph paper which had been previously ruled to facilitate counting. Temperature and humidity in the test room during the 24 hour holding period were 65°-70° F. and 50-70 percent, respectively. Aphids which fell onto the paper and were unable to remain standing after being uprighted were considered dead. Aphids remaining on the plants were observed closely for movement and those which were unable to move the length of the body upon stimulation by prodding were considered dead. Percent mortality was recorded for various concentration levels.
as §2, §3

[4] = system: Mexican bean beetle (Epilachna varivestis, Muls.); assay: Mexican Bean Beetle Leaf Spray Test; format: in vivo; set-up: key to pesticidal activity rating, Bean beetle: A: excellent control; B: partial control; C: no control; details: leaf spray
Experimental: Fourth instar larvae of the Mexican bean beetle (Epilachna varivestis, Muls.), reared on Tendergreen bean plants at a temperature of 80°±5° F. and 50±5 percent relative humidity, were the test insects.
The test compounds were formulated by diluting the stock suspension with water to give a suspension containing 500 parts of test compound per million parts of final formulation. Potted Tendergreen bean plants of standard height and age were placed on a revolving turntable and sprayed with 100-110 milliliters of test compound formulation by use of a DeVilbiss spray gun set at 10 psig air pressure. This application, which lasted 25 seconds, was sufficient to wet plants to run-off. As a control, 100-110 milliliters of a water-acetone-emulsifier solution containing no test compound were also sprayed on infested plants. When dry, the paired leaves were separated and each was placed in a 9 centimeter Petri dish lined with moistened filter paper. Five randomly selected larvae were introduced into each dish, and the dishes were closed. The closed dishes were labeled and held at a temperature of 80°±5° F. for 3 days. Although the larvae could easily consume the leaf within 24 to 48 hours, no more food was added. Larvae which were unable to move the length of the body, even upon stimulation, were considered dead.
as §2, §3

[5] = system: mites; assay: Systemic miticidal activity (soil drench of infested bean plants); format: in vivo, Tetranychus urticae Koch; details: Tetranychus urticae; systemic, soil drench, value in parentheses, Table II; read-out: Insect Toxicity, LD50, Mite, systemic activity
Experimental: as §1, §3
Systemic treatments were made by drenching 20 milliliters of the test compound formulation into the soil around the roots of bean plants growing in 21/2 inch clay pots. […]

[6] = system: house flies (Musca domestica, L.); assay: Fly Bait Test; format: in vivo; set-up: key to pesticidal activity rating, Housefly: A: excellent control; B: partial control; C: no control
Experimental: Four to 6 day old adult house flies (Musca domestica, L.), reared according to the specifications of the Chemical Specialities Manufacturing Association (Blue Book, McNair-Dorland Co., N.Y. 1954; pages 243-244, 261) under controlled conditions of 80°±5° F. and 50±5 percent relative humidity, were the test insects. The flies were immobilized by anesthetizing with carbon dioxide and twenty five immobilized individuals, males and females, were transferred to a cage consisting of a standard food strainer about 5 inches in diameter which was inverted over a wrapping-paper-covered surface. The test compounds were formulated by diluting the stock suspension with a 10 percent (by weight) sugar solution to give a suspension containing 500 parts of test compound per million parts of final formulation, by weight. Ten milliliters of the test formulation were added to a souffle cup containing a 1-inch square of an absorbent cotton pad. This bait cup was introduced and centered on the blotting paper under the food strainer prior to admitting the anesthetized flies. The caged flies were allowed to feed on the bait for 24 hours, at a temperature of 80°±5° F. and the relative humidity of 50±5 percent.
as §2, §3

[7] = system: southern armyworm (Prodenia eridania, (Cram.)); assay: Southern Armyworm Leaf Spray Test; format: in vivo; set-up: key to pesticidal activity rating, Armyworm: A: excellent control; B: partial control; C: no control
Experimental: Larvae of the southern armyworm (Prodenia eridania, (Cram.)), reared on Tendergreen bean plants at a temperature of 80°±5° F. and a relative humidity of 50±5 percent, constituted the test insects.
The test compounds were formulated by diluting the stock suspension with water to give a suspension containing 500 parts of test compound per million parts of final formulation. Potted Tendergreen bean plants of standard height and age were placed on a revolving turntable and sprayed with 100-110 milliliters of test compound formulation by use of a DeVilbiss spray gun set at 10 psig air pressure. This application, which lasted 25 seconds, was sufficient to wet plants to run-off. As a control, 100-110 milliliters of a water-acetone-emulsifier solution containing no test compound were also sprayed on infested plants. When dry, the paired leaves were separated and each one was placed in a 9 centimeter Petri dish lined with moistened filter paper. Five randomly selected larvae were introduced into each dish and the dishes were closed. The closed dishes were labeled and held at 80°-85° F. for 3 days. Although the larvae could easily consume the whole leaf within 24 hours, no more food was added. Larvae which were unable to move the length of the body, even upon stimulation by prodding, were considered dead. Percent mortality was recorded for various concentration levels.
as §2, §3

CNC(=O)ON=C1CSCCS1 [drawing 3 --NHCH3, reference compound]
LD50 [1]: 15 mg/kg | pesticidal activity rating, Mite ([2]; 500 parts per million, 6 days): A | LC50 ([2]; Tetranychus urticae, foliar, Table II, read-out: Insect Toxicity, LD50, Mite): 6 µg/mL (≈ 29.1 µM) | pesticidal activity rating, Aphid ([3]; 500 parts per million, 24 hour): A | LC50 ([3]; Aphis fabae, foliar, 24 h, Table II, read-out: Insect Toxicity, LD50, Aphid): 5 µg/mL (≈ 24.2 µM) | LC50 ([4]; Epilachna varivestis, 72 h, Table II, read-out: Insect Toxicity, LD50, Mexican Bean beetle): 52 µg/mL (≈ 252 µM) | pesticidal activity rating, Bean beetle ([4]; 500 parts per million, 3 days): A | LC50 [5]: 12 µg/mL (≈ 58.2 µM) | pesticidal activity rating, Housefly ([6]; 500 parts per million, 24 hours): A | LC50 ([6]; Musca domestica, 24 h, Table II, read-out: Insect Toxicity, LD50, House fly): 1 µg/mL (≈ 4.85 µM) | pesticidal activity rating, Armyworm ([7]; 500 parts per million, 3 days): A | LC50 ([7]; Spodoptera eridania, 72 h, Table II, read-out: Insect Toxicity, LD50, Armyworm): 53 µg/mL (≈ 257 µM)
